Results on 14 molecules are retold here after PubChem BioAssay (NCI).

Test systems include SW-620 colon; SNB-19 CNS; RPMI-8226 leukemia; UACC-257 melanoma; TK-10 renal; ACHN renal; SF-295 CNS; NCI-H226 lung; CAKI-1 renal.
What all share (assay): inhibition of tumour cell growth, NCI panel, 48 h

The structures appear in SMILES notation.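 Step 1: Grow cells in 96-well plates. Step 2: Expose to compound for 48 hours at 5 concentrations. Step 3: Interpolate endpoints linearly; if unreached, use highest concentration. The concentration for full growth arrest is given as TGI.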 Some results are limits rather than exact numbers.

Regarding `CCOC1C=CC(=O)C(CO)O1` (stereo unspecified), the TGI worked out at 29.6 µM in the test on SW-620 colon; 42.9 µM in the test on SNB-19 CNS; 6 µM with RPMI-8226 leukemia; 19.9 µM with UACC-257 melanoma; 22.7 µM in the test with TK-10 renal; 24.1 µM in the test on ACHN renal. The TGI was 33.2 µM in the test with SF-295 CNS, 46.3 µM in the test with NCI-H226 lung and 27.3 µM with CAKI-1 renal.

For `Cn1c2ccccc2n2c3ncccc3c(=O)c(C#N)c12`, the TGI was > 100 µM in the test on SW-620 colon; > 62.5 µM with SNB-19 CNS; > 100 µM in the test with RPMI-8226 leukemia; > 100 µM in the test with UACC-257 melanoma; > 100 µM in the test on TK-10 renal; 11.7 µM in the test on ACHN renal. The TGI in the test with SF-295 CNS is 48.4 µM; with NCI-H226 lung, 4.65 µM; in the test on CAKI-1 renal, > 77.3 µM.

Regarding `CN(C)C(=O)C(F)(F)C(c1ccc(F)cc1)C1C(=O)N(C)C(=O)N(C)C1=O` (stereo unspecified), the TGI in the test on SW-620 colon, in the test with SNB-19 CNS, in the test on RPMI-8226 leukemia, in the test with UACC-257 melanoma, in the test with TK-10 renal and in the test with ACHN renal was > 100 µM each time. Also, the TGI in the test with SF-295 CNS, in the test with NCI-H226 lung and with CAKI-1 renal was > 100 µM throughout.

With `CC1(C)CC(=O)C2=C(C1)C(c1ccccc1Cl)C1C(=O)CC(C)(C)CC1(O)O2` (stereo unspecified), the TGI with SW-620 colon was > 100 µM; in the test with SNB-19 CNS, > 100 µM; with RPMI-8226 leukemia, > 100 µM; in the test on UACC-257 melanoma it was > 95.9 µM; in the test on TK-10 renal, > 100 µM; in the test with ACHN renal, > 100 µM. In addition, the TGI in the test with SF-295 CNS was > 31.6 µM; in the test with NCI-H226 lung it was > 100 µM; in the test with CAKI-1 renal, > 100 µM.

As for `c1c[nH]c(-c2cccc3nsnc23)c1`, the TGI in the test with SW-620 colon, with SNB-19 CNS, in the test on RPMI-8226 leukemia, in the test on UACC-257 melanoma, in the test on TK-10 renal and in the test on ACHN renal was > 100 µM throughout. For the same molecule, the TGI in the test with SF-295 CNS, in the test on NCI-H226 lung and with CAKI-1 renal was > 100 µM in each case.

For the molecule `NC1=CC(=O)c2c(O)ccc(O)c2C1=O`, the TGI is 15.2 µM in the test with SW-620 colon; > 65.9 µM in the test with SNB-19 CNS; 44.9 µM in the test on RPMI-8226 leukemia; 30.2 µM in the test with UACC-257 melanoma; > 84.8 µM in the test with TK-10 renal; 34.2 µM in the test with ACHN renal. Further, the TGI in the test with SF-295 CNS is 40.9 µM; in the test with NCI-H226 lung, > 100 µM; in the test with CAKI-1 renal, 66.8 µM.

Consider `CCCCCCN(CCCCCC)C(=S)N/N=C(\C)c1ccccn1`, for which the TGI was 4.77 µM in the test with SW-620 colon; 3.92 µM with SNB-19 CNS; 3.22 µM in the test with RPMI-8226 leukemia; 4.34 µM in the test with UACC-257 melanoma; 2.5 µM in the test on TK-10 renal; 2.17 µM with ACHN renal. Also, the TGI came out at 3.19 µM with SF-295 CNS, 2.27 µM with NCI-H226 lung and 2.68 µM in the test with CAKI-1 renal.

On to `[N-]=[N+]=CC(=O)C1CCCN1C(=O)c1ccccc1` (stereo unspecified), for which the TGI in the test with SW-620 colon, in the test on SNB-19 CNS, in the test with RPMI-8226 leukemia, in the test on UACC-257 melanoma, with TK-10 renal and with ACHN renal was > 10 µM each time. For the same molecule, the TGI in the test with SF-295 CNS, with NCI-H226 lung and with CAKI-1 renal was > 10 µM each time.

On to `O=C(COc1ccc(OCC(=O)N/N=C/c2ccc(-c3ccc(Cl)cc3Cl)o2)c(Cl)c1)N/N=C/c1ccc(-c2ccc(Cl)cc2Cl)o1`, for which the TGI in the test on SW-620 colon is > 100 µM; in the test with SNB-19 CNS, > 100 µM; in the test with RPMI-8226 leukemia it was 38.4 µM; in the test on UACC-257 melanoma, > 100 µM; in the test on TK-10 renal, > 100 µM; in the test on ACHN renal it was > 100 µM. Further, the TGI in the test on SF-295 CNS, in the test with NCI-H226 lung and with CAKI-1 renal was > 100 µM in each case.

Consider `O=C(CCc1cc(O)cc(O)c1)NCCc1cc(OCc2ccccc2)cc(OCc2ccccc2)c1`, for which the TGI with SW-620 colon amounted to 53.3 µM; with SNB-19 CNS, 7.17 µM; with RPMI-8226 leukemia, 54 µM; in the test with UACC-257 melanoma it was 70 µM; with TK-10 renal, 46.2 µM; in the test with ACHN renal, 15.6 µM. In addition, the figures for the TGI in the test with SF-295 CNS, in the test on NCI-H226 lung and with CAKI-1 renal were 25.8 µM, 51.3 µM and 36.8 µM, respectively.

Take `COc1ccc2nc(NC(=O)/C(C#N)=C/c3ccccc3)sc2c1`: the TGI in the test on SW-620 colon was > 100 µM; in the test with SNB-19 CNS, > 100 µM; in the test on RPMI-8226 leukemia it was > 84.5 µM; in the test on UACC-257 melanoma, > 100 µM; in the test on TK-10 renal, 88 µM; in the test on ACHN renal, > 100 µM. Moreover, the TGI in the test with SF-295 CNS, in the test with NCI-H226 lung and with CAKI-1 renal was > 100 µM each time.

For `CC1CC(N2CCOCC2)=Nc2ccccc2N1C` (stereo unspecified), the TGI in the test with SW-620 colon, with SNB-19 CNS, with RPMI-8226 leukemia, in the test on UACC-257 melanoma, with TK-10 renal and with ACHN renal was > 100 µM throughout. In addition, the TGI in the test on SF-295 CNS, in the test on NCI-H226 lung and with CAKI-1 renal was > 100 µM each time.

Turning to `CCOC(=O)CSc1nc(N)c2c(-c3ccccc3)c3c(nc2n1)CCCC3`, the TGI in the test on SW-620 colon, with SNB-19 CNS, with RPMI-8226 leukemia, with UACC-257 melanoma, with TK-10 renal and in the test on ACHN renal was > 100 µM in each case. The TGI with SF-295 CNS, in the test on NCI-H226 lung and in the test on CAKI-1 renal was > 100 µM in each case.

Regarding `COc1ccc(N=Nc2c(-c3c(OC)cc4occc4c3OC)[nH]c(=O)c(C#N)c2C)cc1`, the TGI in the test on SW-620 colon, with SNB-19 CNS, in the test with RPMI-8226 leukemia, in the test with UACC-257 melanoma, in the test on TK-10 renal and with ACHN renal was > 100 µM each time. Further, the TGI with SF-295 CNS, in the test with NCI-H226 lung and with CAKI-1 renal was > 100 µM each time.
